Measurements: PubChem BioAssay AID1919005 (Molecular Pharmacology Branch, DTP, NCI, 2023)
“And” between values parts separate entries of the source, which are not always exact repeats. Identical values can stand only once.

Test system: 855422-203-R-J1-PDC complex spheroid growth
Assay: Anticancer human tumor 855422-203-R-J1-PDC patient-derived bladder carcinoma cell line growth inhibition [AhR]
Settings: for viability, T/C: stronger effect = lower value
Summary of the method: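 Spheroids combined tumor cells with HUVEC endothelial cells and human MSCs as stroma. AhR antagonists were paired with standard or investigational drugs, each dosed in half-log steps down from near clinical Cmax, or from 10 microM where Cmax was unknown.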

[1] = curve of first compound, second compound 0.1 µM
[2] = curve of first compound, second compound 0.316 µM
[3] = curve of first compound, second compound 1 µM
[4] = curve of first compound, second compound 3.16 µM
[5] = curve of first compound, second compound 10 µM
[6] = second compound 0.1 µM, first compound 0.0316 µM
[7] = second compound 0.1 µM, first compound 0.1 µM
[8] = second compound 0.1 µM, first compound 0.316 µM
[9] = second compound 0.1 µM, first compound 1 µM
[10] = second compound 0.1 µM, first compound 3.16 µM
[11] = second compound 0.1 µM, first compound 10 µM
[12] = second compound 0.316 µM, first compound 0.0316 µM
[13] = second compound 0.316 µM, first compound 0.1 µM
[14] = second compound 0.316 µM, first compound 0.316 µM
[15] = second compound 0.316 µM, first compound 1 µM
[16] = second compound 0.316 µM, first compound 3.16 µM
[17] = second compound 0.316 µM, first compound 10 µM
[18] = second compound 1 µM, first compound 0.0316 µM
[19] = second compound 1 µM, first compound 0.1 µM
[20] = second compound 1 µM, first compound 0.316 µM
[21] = second compound 1 µM, first compound 1 µM
[22] = second compound 1 µM, first compound 3.16 µM
[23] = second compound 1 µM, first compound 10 µM
[24] = second compound 3.16 µM, first compound 0.0316 µM
[25] = second compound 3.16 µM, first compound 0.1 µM
[26] = second compound 3.16 µM, first compound 0.316 µM
[27] = second compound 3.16 µM, first compound 1 µM
[28] = second compound 3.16 µM, first compound 3.16 µM
[29] = second compound 3.16 µM, first compound 10 µM
[30] = second compound 10 µM, first compound 0.0316 µM
[31] = second compound 10 µM, first compound 0.1 µM
[32] = second compound 10 µM, first compound 0.316 µM
[33] = second compound 10 µM, first compound 1 µM
[34] = second compound 10 µM, first compound 3.16 µM
[35] = second compound 10 µM, first compound 10 µM
[36] = second compound 0.1 µM, first compound 0.00316 µM
[37] = second compound 0.1 µM, first compound 0.01 µM
[38] = second compound 0.316 µM, first compound 0.00316 µM
[39] = second compound 0.316 µM, first compound 0.01 µM
[40] = second compound 1 µM, first compound 0.00316 µM
[41] = second compound 1 µM, first compound 0.01 µM
[42] = second compound 3.16 µM, first compound 0.00316 µM
[43] = second compound 3.16 µM, first compound 0.01 µM
[44] = second compound 10 µM, first compound 0.00316 µM
[45] = second compound 10 µM, first compound 0.01 µM
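Also: spheroids exposed to agents for seven days before readout.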
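For viability, T/C in this document: percent of DMSO vehicle control luminescence viability.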

SMILES: O=C(C=Cn1cnc(-c2cc(C(F)(F)F)cc(C(F)(F)F)c2)n1)NNc1cnccn1 + Cc1cncc(-c2nc(NCCc3c[nH]c4ccccc34)c3ncn(C(C)C)c3n2)c1
- IC50 [1]: 263 nM
- IC50 [2]: 247 nM
- IC50 [3]: 244 nM
- IC50 [4]: 201 nM
- IC50 [5]: < 9.49 nM
- viability, T/C (second compound 0.1 µM, first compound 0.00949 µM): 101%
- viability, T/C (second compound 0.1 µM, first compound 0.03 µM): 102%
- viability, T/C (second compound 0.1 µM, first compound 0.0949 µM): 162%
- viability, T/C (second compound 0.1 µM, first compound 0.3 µM): 40.8%
- viability, T/C (second compound 0.1 µM, first compound 0.949 µM): 30.8%
- viability, T/C (second compound 0.1 µM, first compound 3 µM): 22.6%
- viability, T/C (second compound 0.316 µM, first compound 0.00949 µM): 108%
- viability, T/C (second compound 0.316 µM, first compound 0.03 µM): 116%
- viability, T/C (second compound 0.316 µM, first compound 0.0949 µM): 128%
- viability, T/C (second compound 0.316 µM, first compound 0.3 µM): 36.3%
- viability, T/C (second compound 0.316 µM, first compound 0.949 µM): 26.3%
- viability, T/C (second compound 0.316 µM, first compound 3 µM): 23.3%
- viability, T/C (second compound 1 µM, first compound 0.00949 µM): 95.3%
- viability, T/C (second compound 1 µM, first compound 0.03 µM): 114%
- viability, T/C (second compound 1 µM, first compound 0.0949 µM): 118%
- viability, T/C (second compound 1 µM, first compound 0.3 µM): 37.1%
- viability, T/C (second compound 1 µM, first compound 0.949 µM): 30.3%
- viability, T/C (second compound 1 µM, first compound 3 µM): 25.3%
- viability, T/C (second compound 3.16 µM, first compound 0.00949 µM): 83.8%
- viability, T/C (second compound 3.16 µM, first compound 0.03 µM): 95.4%
- viability, T/C (second compound 3.16 µM, first compound 0.0949 µM): 106%
- viability, T/C (second compound 3.16 µM, first compound 0.3 µM): 22.2%
- viability, T/C (second compound 3.16 µM, first compound 0.949 µM): 32.2%
- viability, T/C (second compound 3.16 µM, first compound 3 µM): 23.9%
- viability, T/C (second compound 10 µM, first compound 0.00949 µM): 11.4%
- viability, T/C (second compound 10 µM, first compound 0.03 µM): 7.81%
- viability, T/C (second compound 10 µM, first compound 0.0949 µM): 6.35%
- viability, T/C (second compound 10 µM, first compound 0.3 µM): 7.34%
- viability, T/C (second compound 10 µM, first compound 0.949 µM): 7.72%
- viability, T/C (second compound 10 µM, first compound 3 µM): 8.99%

SMILES: Nc1ncn(C2CC(O)C(CO)S2)c(=O)n1 (configuration not stated)
- viability, T/C (compound 0.000949 µM): 108% and 96.3% and 97.9%
- viability, T/C (compound 0.003 µM): 93.2% and 97.4% and 100%
- viability, T/C (compound 0.00949 µM): 95.8% and 97.7% and 113%
- viability, T/C (compound 0.03 µM): 82.9% and 103% and 95.7%
- viability, T/C (compound 0.0949 µM): 86.4% and 98.1% and 91.1%
- viability, T/C (compound 0.3 µM): 81.6% and 99.8% and 82.1%
- IC50 (curve of compound): > 300 nM

SMILES: COc1cc(C2c3cc4c(cc3C(OC3OC5COC(C)OC5C(O)C3O)C3COC(=O)C23)OCO4)cc(OC)c1O (configuration not stated) + Cc1cncc(-c2nc(NCCc3c[nH]c4ccccc34)c3ncn(C(C)C)c3n2)c1
- IC50 [1]: 372 nM
- IC50 [2]: 207 nM
- IC50 [3]: 207 nM
- IC50 [4]: 173 nM
- IC50 [5]: < 31.6 nM
- viability, T/C [6]: 85.9%
- viability, T/C [7]: 85.5%
- viability, T/C [8]: 55.4%
- viability, T/C [9]: 14.8%
- viability, T/C [10]: 9.41%
- viability, T/C [11]: 3.49%
- viability, T/C [12]: 88.4%
- viability, T/C [13]: 83.7%
- viability, T/C [14]: 30.2%
- viability, T/C [15]: 15%
- viability, T/C [16]: 8.46%
- viability, T/C [17]: 3.99%
- viability, T/C [18]: 83.8%
- viability, T/C [19]: 79.7%
- viability, T/C [20]: 32.5%
- viability, T/C [21]: 14.4%
- viability, T/C [22]: 8.33%
- viability, T/C [23]: 6.08%
- viability, T/C [24]: 76.8%
- viability, T/C [25]: 73.7%
- viability, T/C [26]: 24.4%
- viability, T/C [27]: 13.2%
- viability, T/C [28]: 6.72%
- viability, T/C [29]: 4.03%
- viability, T/C [30]: 9.82%
- viability, T/C [31]: 11.7%
- viability, T/C [32]: 1.25%
- viability, T/C [33]: 0.55%
- viability, T/C [34]: 1.09%
- viability, T/C [35]: 2.98%

SMILES: CC1COCCN1c1cc(-c2ccnn2C)c2ccnc(-c3ccn[nH]3)c2n1 (configuration not stated) + Cc1cncc(-c2nc(NCCc3c[nH]c4ccccc34)c3ncn(C(C)C)c3n2)c1
- IC50 [1]: 254 nM
- IC50 [2]: 405 nM
- IC50 [3]: 361 nM
- IC50 [4]: 80.4 nM
- IC50 [5]: < 3.16 nM
- viability, T/C [36]: 83.7%
- viability, T/C [37]: 96.2%
- viability, T/C [6]: 93.6%
- viability, T/C [7]: 97.8%
- viability, T/C [8]: 39.9%
- viability, T/C [9]: 12.7%
- viability, T/C [38]: 91.3%
- viability, T/C [39]: 91.1%
- viability, T/C [12]: 74.9%
- viability, T/C [13]: 85.6%
- viability, T/C [14]: 60.6%
- viability, T/C [15]: 11.1%
- viability, T/C [40]: 77.2%
- viability, T/C [41]: 79.9%
- viability, T/C [18]: 85.5%
- viability, T/C [19]: 71.4%
- viability, T/C [20]: 55.6%
- viability, T/C [21]: 10.7%
- viability, T/C [42]: 75.6%
- viability, T/C [43]: 77.2%
- viability, T/C [24]: 63%
- viability, T/C [25]: 28.6%
- viability, T/C [26]: 50.5%
- viability, T/C [27]: 9.55%
- viability, T/C [44]: 3.1%
- viability, T/C [45]: 4.56%
- viability, T/C [30]: 3.12%
- viability, T/C [31]: 6.41%
- viability, T/C [32]: 2.62%
- viability, T/C [33]: 1.62%

SMILES: Nc1ccn(C2OC(CO)C(O)C2(F)F)c(=O)n1 (configuration not stated) + CC(CO)NC(=O)c1cc(-c2ccc(Cl)cc2)nn(-c2cnn(C)c2)c1=O
- IC50 [1]: 232 nM
- IC50 [2]: 166 nM
- IC50 [3]: 175 nM
- IC50 [4]: 99.5 nM
- IC50 [5]: 132 nM
- viability, T/C [6]: 99.4%
- viability, T/C [7]: 79.7%
- viability, T/C [8]: 38.5%
- viability, T/C [9]: 18.7%
- viability, T/C [10]: 14.4%
- viability, T/C [11]: 10.5%
- viability, T/C [12]: 88.4%
- viability, T/C [13]: 71.2%
- viability, T/C [14]: 22.9%
- viability, T/C [15]: 15.9%
- viability, T/C [16]: 13.2%
- viability, T/C [17]: 8.62%
- viability, T/C [18]: 97.8%
- viability, T/C [19]: 74.3%
- viability, T/C [20]: 23.9%
- viability, T/C [21]: 17.8%
- viability, T/C [22]: 14.4%
- viability, T/C [23]: 8.17%
- viability, T/C [24]: 89.9%
- viability, T/C [25]: 50.2%
- viability, T/C [26]: 22.2%
- viability, T/C [27]: 16.1%
- viability, T/C [28]: 11.3%
- viability, T/C [29]: 9.74%
- viability, T/C [30]: 81.3%
- viability, T/C [31]: 59.6%
- viability, T/C [32]: 19.9%
- viability, T/C [33]: 14.6%
- viability, T/C [34]: 14.5%
- viability, T/C [35]: 8.36%

SMILES: CC1COCCN1c1cc(-c2ccnn2C)c2ccnc(-c3ccn[nH]3)c2n1 (configuration not stated) + Cc1ccccc1N=Nc1ccc(NC(=O)c2ccnn2C)c(C)c1
- IC50 [1]: 527 nM
- IC50 [2]: 507 nM
- IC50 [3]: 507 nM
- IC50 [4]: 351 nM
- IC50 [5]: 298 nM
- viability, T/C [36]: 104%
- viability, T/C [37]: 99.4%
- viability, T/C [6]: 97.7%
- viability, T/C [7]: 98.4%
- viability, T/C [8]: 67.6%
- viability, T/C [9]: 27.8%
- viability, T/C [38]: 101%
- viability, T/C [39]: 107%
- viability, T/C [12]: 97.5%
- viability, T/C [13]: 101%
- viability, T/C [14]: 68%
- viability, T/C [15]: 24.1%
- viability, T/C [40]: 100%
- viability, T/C [41]: 106%
- viability, T/C [18]: 91%
- viability, T/C [19]: 97.8%
- viability, T/C [20]: 66%
- viability, T/C [21]: 26.9%
- viability, T/C [42]: 88.6%
- viability, T/C [43]: 86.7%
- viability, T/C [24]: 87.3%
- viability, T/C [25]: 92.6%
- viability, T/C [26]: 52.7%
- viability, T/C [27]: 23%
- viability, T/C [44]: 77.1%
- viability, T/C [45]: 83.5%
- viability, T/C [30]: 76.4%
- viability, T/C [31]: 73%
- viability, T/C [32]: 48.7%
- viability, T/C [33]: 20.9%
